PMC3362486 (Chemico-Biological Interactions, 2012)

Experiments:
CYP2A6 [1] = biological target: T1, CYP2A6 (Homo sapiens, UniProt P11509); test: biochemical; assay type: biochemical
T1 sequence (P11509 1-494): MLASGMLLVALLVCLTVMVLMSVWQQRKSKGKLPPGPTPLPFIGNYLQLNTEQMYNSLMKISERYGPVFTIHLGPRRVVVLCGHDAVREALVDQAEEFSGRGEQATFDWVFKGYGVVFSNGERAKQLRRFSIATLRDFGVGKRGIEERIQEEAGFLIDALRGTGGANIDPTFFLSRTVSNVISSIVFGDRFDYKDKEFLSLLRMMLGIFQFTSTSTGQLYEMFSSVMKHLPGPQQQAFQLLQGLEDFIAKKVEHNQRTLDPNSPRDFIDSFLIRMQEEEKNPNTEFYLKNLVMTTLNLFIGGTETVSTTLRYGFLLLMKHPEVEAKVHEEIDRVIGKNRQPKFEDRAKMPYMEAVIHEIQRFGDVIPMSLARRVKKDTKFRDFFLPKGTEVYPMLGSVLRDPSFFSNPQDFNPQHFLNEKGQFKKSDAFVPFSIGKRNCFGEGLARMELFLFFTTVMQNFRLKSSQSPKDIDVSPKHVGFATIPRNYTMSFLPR

CYP2A6 [2] = biological target: T1, CYP2A6; assay type: biochemical
CYP2A13 [3] = biological target: T2, CYP2A13 (Homo sapiens, UniProt Q16696); test: in vitro; assay type: biochemical; conditions: for activity at 10 min, 20 µM: human, pH 7.4, probe coumarin (7-hydroxylation), 20 μM in the secondary reaction
T2 sequence (Q16696 1-494): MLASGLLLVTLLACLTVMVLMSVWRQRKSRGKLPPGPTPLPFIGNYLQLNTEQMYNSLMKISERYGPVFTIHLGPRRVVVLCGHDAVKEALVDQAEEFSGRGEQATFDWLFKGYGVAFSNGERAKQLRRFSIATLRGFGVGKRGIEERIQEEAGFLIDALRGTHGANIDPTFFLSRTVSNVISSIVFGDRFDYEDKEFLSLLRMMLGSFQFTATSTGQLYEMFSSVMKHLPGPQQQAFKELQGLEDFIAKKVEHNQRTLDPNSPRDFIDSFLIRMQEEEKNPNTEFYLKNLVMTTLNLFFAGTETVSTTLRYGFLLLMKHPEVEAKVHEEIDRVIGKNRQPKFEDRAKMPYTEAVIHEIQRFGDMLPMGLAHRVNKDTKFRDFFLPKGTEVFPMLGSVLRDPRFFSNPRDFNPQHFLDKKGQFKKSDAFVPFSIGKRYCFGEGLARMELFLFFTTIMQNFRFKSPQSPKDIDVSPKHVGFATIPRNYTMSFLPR

CYP2A6 [4] = biological target: T1, CYP2A6; conditions: cited from earlier work
CYP2A13 [5] = biological target: T2, CYP2A13; conditions: cited from earlier work
CYP2A13 [6] = biological target: T2, CYP2A13; test: biochemical
CYP2A6 [7] = biological target: T1, CYP2A6; test: Effect of NADPH and trapping agents; assay type: biochemical; conditions: for Percent Activity Remaining (10 min relative to 0 min): menthofuran 5 μM or β-nicotyrine 20 μM
CYP2A6 [8] = biological target: T1, CYP2A6; test: CYP2A6 inactivation kinetics and partition ratio; assay type: biochemical
CYP2A6 [9] = biological target: T1, CYP2A6; test: Irreversibility of CYP2A6 inactivation; assay type: biochemical

Row | SMILES | Ki (CYP2A6 [1]) | Inhibition of CYP2A6, times less potent than menthofuran and β-nicotyrine (CYP2A6 [1]; comparison of KI values) | Inactivation of CYP2A6 (in words) (CYP2A6 [2]; inhibitor 20 μM with NADPH) | activity at 10 min, 20 µM (CYP2A13 [3]) | Inactivation of CYP2A13 (in words) (CYP2A13 [3]; inhibitor 20 μM with NADPH) | Inhibition of CYP2A6 (in words) (CYP2A6 [4]) | Catalytic efficiency (kcat/Km) of metabolic activation, CYP2A13 versus CYP 2A6 (CYP2A13 [5]) | Ki (CYP2A13 [6]) | Loss of CYP2A6 coumarin 7-hydroxylation activity (CYP2A6 [2]; inhibitor 20 μM, in the presence of NADPH) | Loss of CYP2A13 activity (CYP2A13 [3]; inhibitor 20 μM with NADPH) | Loss of CYP2A13-catalyzed coumarin 7-hydroxylation at higher concentration (CYP2A13 [3]; menthofuran 200 μM or 30 min incubations, data not shown) | Percent Activity Remaining (10 min relative to 0 min) (CYP2A6 [7]; inhibitor + NADPH + glutathione (10mM)) | Percent Activity Remaining (10 min relative to 0 min) (CYP2A6 [7]; inhibitor + NADPH + semicarbazide (10mM)) | Percent Activity Remaining (10 min relative to 0 min) (CYP2A6 [7]; inhibitor + NADPH) | Loss of CYP2A6 enzyme activity (CYP2A6 [7]; menthofuran 5 μM or β-nicotyrine 20 μM with NADPH, 10 min) | KI for inactivation of CYP2A6, fold lower than that of β-nicotyrine (CYP2A6 [8]) | Partition ratio, times higher than for β-nicotyrine-mediated inactivation (CYP2A6 [8]; calculated partition ratio) | Reversibility of CYP2A6 inactivation upon removal of unbound small molecules (CYP2A6 [9])
1 | CC(C)[C@@H]1CC[C@@H](C)C[C@H]1O [Menthol, (1R,2S,5R)-2-isopropyl-5-methylcyclohexanol] | 110000 ± 10700 nM | 100 times | no indication | 87 ± 11% | no indication | weak inhibitor |  |  |  |  |  |  |  |  |  |  |  | 
2 | CN(CCCC(=O)c1cccnc1)N=O [NNK, 4-(methylnitrosamino)-1-(3-pyridyl)-1-butanone] |  |  |  |  |  |  | 200 fold |  |  |  |  |  |  |  |  |  |  | 
3 | Cc1coc2c1CC[C@@H](C)C2 [Menthofuran, 3,6R-dimethyl-4,5,6,7-tetrahydro-1-benzofuran] | 290 ± 50 nM |  |  | 91 ± 5% |  |  |  | 1240 ± 260 nM | 95% | no significant loss | no loss | 48% | 40% | 43% | about 60% | ~50 fold | ~ 3.5 times | not reversible
